# Measured values taken from patent US20240262806A1, “INHIBITORS OF NLRP3” (PTC THERAPEUTICS, INC., priority 2021, published 2024).
# System: NLRP3 inflammasome
# Test: IL-1β Secretion Assay (NLRP3-dependent IL-1β secretion in PMA-differentiated THP-1 cells, nigericin activation, HTRF)
# Type: cell-based
# Conditions: Homo sapiens, THP-1, THP-1 cells, 100 ng/mL PMA 24 h, compound 20 h, 2.5 μM Nigericin 3 h; read-out: IC50 IL-1β Inhibition
# Procedure, shortened: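 IL-1β release, quantified by HTRF after nigericin activation of the NLRP3 inflammasome, was the read-out. A logistic fit of percent inhibition gave IC50.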
row,Structure (SMILES),IC50
1,COc1ccc(-c2nnc(N[C@@H]3CCCN(C)C3)c3cnccc23)c(O)c1 [Compound I-175],< 1 nM
2,CN1CCC[C@H](Nc2nnc(-c3ccc(-c4ncco4)cc3O)c3ccncc23)C1 [Compound I-176],1 to 10 nM
3,CN1CCC[C@@H](Nc2nnc(-c3ccc(C(F)(F)F)cc3C(F)(F)F)c3ccncc23)C1 [Compound I-177],1 to 10 nM
4,Cc1cc(OC(F)F)c(-c2nnc(N[C@@H]3CCCN(C)C3)c3cnccc23)cc1F [Compound I-178],1 to 10 nM
5,Cc1cc(O)c(-c2nnc(N[C@@H]3CCCN(C)C3)c3cnccc23)c(F)c1 [Compound I-179],< 1 nM
6,Cn1cc(Nc2nnc(-c3ccc(C(F)(F)F)cc3O)c3ccncc23)cn1 [Compound I-180],1 to 10 nM
7,COc1ccc(-c2nnc(N[C@@H]3CCCN(C)C3)c3cnccc23)c(C(F)(F)F)c1 [Compound I-181],1 to 10 nM
8,CN1CCC[C@@H](Nc2nnc(-c3ccc(C(F)(F)F)cc3C(N)=O)c3ccncc23)C1 [Compound I-182],10 to 100 nM
9,CN1CCCCC(Nc2nnc(-c3ccc(C(F)(F)F)cc3O)c3cnccc23)C1 (stereo not shown) [Compound I-185],10 to 100 nM
10,CN1CCCC[C@H](Nc2nnc(-c3ccc(C(F)(F)F)cc3O)c3ccncc23)C1 [Compound I-186],10 to 100 nM
11,CN1CCCC[C@@H](Nc2nnc(-c3ccc(C(F)(F)F)cc3O)c3ccncc23)C1 [Compound I-187],< 1 nM
12,CN1CCC[C@@H](Nc2nnc(-c3ccc(C(F)(F)F)cc3OC3COC3)c3cnccc23)C1 [Compound I-188],10 to 100 nM
13,CN1CCC[C@@H](Nc2nnc(-c3ccc(C(F)(F)F)cc3-c3cnn(C)c3)c3cnccc23)C1 [Compound I-189],10 to 100 nM
14,CN1CCC[C@@H](Nc2nnc(-c3ccc(C(F)(F)F)cc3CO)c3ccncc23)C1 [Compound I-190],10 to 100 nM
15,CN1CCC[C@@H](Nc2nnc(-c3ccc(OC(F)(F)F)cc3OC(F)F)c3ccncc23)C1 [Compound I-191],1 to 10 nM
16,CN1CCC[C@@H](Nc2nnc(-c3ccc(C(F)(F)F)cc3S(C)(=O)=O)c3ccncc23)C1 [Compound I-192],10 to 100 nM
17,CN1CCC[C@@H](Nc2nnc(-c3ccc(C(F)(F)F)cc3-c3cn[nH]c3)c3ccncc23)C1 [Compound I-193],10 to 100 nM
18,"CN1CCC[C@@H](Nc2nnc(-c3ccc(C(F)(F)F)cc3C3CC3)c3ccncc23)C1 [Compound I-194, (R)-1-(2-Cyclopropyl-4-(trifluoromethyl)phenyl)-N-(1-methylpiperidin-3-yl)pyrido[3,4-d]pyridazin-4-amine]",1 to 10 nM
19,Cc1cnc(-c2nnc(N[C@@H]3CCCN(C)C3)c3cnccc23)c(O)c1 [Compound I-195],1 to 10 nM
20,CN1CCC[C@@H](Nc2nnc(-c3c(O)cc(C4CC4)cc3F)c3ccncc23)C1 [Compound I-196],< 1 nM
21,CN1CCC[C@@H](Nc2nnc(-c3c(O)cc(C(F)(F)F)cc3F)c3ccncc23)C1 [Compound I-197],< 1 nM
22,Cc1cc(Cl)cc(F)c1-c1nnc(N[C@@H]2CCCN(C)C2)c2cnccc12 [Compound I-198],10 to 100 nM
23,COc1cc(C(F)(F)F)ccc1-c1nnc(N[C@H]2CN3CCC2CC3)c2cnccc12 [Compound I-199],10 to 100 nM
24,CN1CCC[C@@H](Nc2nnc(-c3ccc(-c4ncccn4)cc3O)c3ccncc23)C1 [Compound I-200],1 to 10 nM

row,Structure (SMILES),IC50
1,COc1cc(C(F)(F)F)ccc1-c1nnc(N2CCC(N(C)C)CC2)c2cnccc12 [Compound I-201],10 to 100 nM
2,CN1CCC[C@@H](Nc2nnc(-c3ccc(C(F)(F)F)cc3-c3ccccc3)c3ccncc23)C1 [Compound I-202],10 to 100 nM
3,CN(C)CC1CCN(c2nnc(-c3ccc(C(F)(F)F)cc3O)c3ccccc23)C1 (stereo not shown) [Compound I-203],10 to 100 nM
4,Cc1cc(C)c(-c2nnc(N[C@@H]3CCCN(C)C3)c3cnccc23)c(C)c1 [Compound I-205],1 to 10 nM
5,"OCCN1CCC[C@@H](Nc2nnc(-c3ccc(C(F)(F)F)cc3OC(F)F)c3ccncc23)C1 [Compound I-206, 2-[(3R)-3-[[1-[2-(Difluoromethoxy)-4-(trifluoromethyl)phenyl]pyrido[3,4-d]pyridazin-4-yl]amino]-1-piperidyl]ethanol]",< 1 nM
6,CC(C)c1ccc(-c2nnc(N[C@@H]3CCCN(C)C3)c3cnccc23)c(C(C)C)c1 [Compound I-207],1 to 10 nM
7,COc1c(C2CC2)ccc(F)c1-c1nnc(N[C@@H]2CCCN(C)C2)c2cnccc12 [Compound I-208],10 to 100 nM
8,CN1CCC[C@@H](Nc2nnc(-c3c(F)ccc(C4CC4)c3O)c3ccncc23)C1 [Compound I-210],10 to 100 nM
9,CN1CCC(Nc2nnc(-c3ccc(C(F)(F)F)cc3O)c3ccncc23)CC12CC2 (stereo not shown) [Compound I-212],10 to 100 nM
10,COc1cc(C(F)(F)F)ccc1-c1nnc(NC2CC3CCC(C3)N2C)c2cnccc12 (stereo not shown) [Compound I-213],100 to 300 nM
11,"CN1CCC[C@@H](Nc2nnc(-c3ccc(C(F)(F)F)cc3CC(F)(F)F)c3ccncc23)C1 [Compound I-214, (R)—N-(1-Methylpiperidin-3-yl)-1-(2-(2,2,2-trifluoroethyl)-4-(trifluoromethyl)-phenyl)pyrido[3,4-d]pyridazin-4-amine]",< 1 nM
12,"Oc1cc(C(F)(F)F)ccc1-c1nnc(N[C@@H]2CCCN(C3CC3)C2)c2cnccc12 [Compound I-215, 2-[4-[[(3R)-1-cyclopropyl-3-piperidyl]amino]pyrido[3,4-d]pyridazin-1-yl]-5-(trifluoromethyl)phenol]",< 1 nM
13,Cc1ccc(-c2nnc(N[C@@H]3CCCN(C)C3)c3cnccc23)c(C)c1 [Compound I-216],1 to 10 nM
14,Cc1cc(C#N)ccc1-c1nnc(N[C@@H]2CCCN(C)C2)c2cnccc12 [Compound I-217],10 to 100 nM
15,Cc1cc(Cl)cc(C)c1-c1nnc(N[C@@H]2CCCN(C)C2)c2cnccc12 [Compound I-218],< 1 nM
16,O=C(c1ccc(-c2nnc(N[C@@H]3CCCNC3)c3ccccc23)c(O)c1)C(F)(F)F [Compound I-220],100 to 300 nM
17,CN1CCC[C@@H](Nc2nnc(-c3c(F)cc(Cl)cc3F)c3ccncc23)C1 [Compound I-221],1 to 10 nM
18,Cc1cc(C(F)(F)F)cc(F)c1-c1nnc(N[C@@H]2CCCN(C)C2)c2cnccc12 [Compound I-222],1 to 10 nM
19,CN1CCC(Nc2nnc(-c3ccc(C(F)(F)F)cc3O)c3ccncc23)CC1 [Compound I-224],10 to 100 nM
20,"C#Cc1ccc(-c2nnc(N[C@@H]3CCCN(C)C3)c3ccccc23)c(O)c1 [Compound I-226, (R)-5-ethynyl-2-(4-((1-methylpiperidin-3-yl)amino)phthalazin-1-yl)phenol]",< 1 nM
21,CC#Cc1ccc(-c2nnc(N[C@@H]3CCCN(C)C3)c3ccccc23)c(O)c1 [Compound I-227],< 1 nM
22,"CC#Cc1cc(C(F)(F)F)ccc1-c1nnc(N[C@@H]2CCCN(C)C2)c2cnccc12 [Compound I-228, (R)—N-(1-methylpiperidin-3-yl)-1-(2-(prop-1-yn-1-yl)-4-(trifluoromethyl)phenyl)pyrido[3,4-d]pyridazin-4-amine]",1 to 10 nM
23,Oc1cc(C(F)(F)F)ccc1-c1nnc(NC2CNCCOC2)c2ccncc12 (stereo not shown) [Compound I-230],10 to 100 nM

# Same assay, conditions: THP-1 cells, 100 ng/mL PMA 24 h, compound 20 h, 2.5 μM Nigericin 3 h; read-out: IC50 IL-1β Inhibition
row,Structure (SMILES),IC50
1,CN1CCC[C@@H](Nc2nnc(-c3c(F)ccc(Cl)c3O)c3ccncc23)C1 [Compound I-209],1 to 10 nM
2,CN1CCC[C@@H](Nc2nnc(-c3c(F)ccc(Cl)c3O)c3ccncc23)C1 [Compound I-211],10 to 100 nM
